The values below come from US20130108713A1 (RYAOMA, INC., priority 2008, published 2013).

The subject of series [1] is metastatic melanoma-affected patients.
Method: The melanoma-affected patients are treated as follows. […] The treatment course spans 15 to 20 intravenous infusions. When a positive dynamic is achieved, the treatment course is followed until the pronounced effect is produced.
Along with an estimated rate of objected responses of therapeutical measures, a comparison was made between such indexes as the quality of life, endurability of therapeutic treatment, and total survivability. The study included the patients of the age period between 18-75 with histologically confirmed diagnoses of skin related melanomas. None of the patients had yet gone through chemotherapy. […] The treatment process continued to the point where the disease started progressing or side-effects developed that required the therapeutic measures to be terminated.
Dacarbazine in a dose of 2500 mg/mL was prescribed in a form of infusion that lasted sixty minutes (60 min.), once a day during successive five days, every four weeks on the 1-5 and 29-33rd days respectively. Repeated courses were carried out only in the patients whose progressing disease was not recorded.
The test system of series [2] is albumin. Description: Albumin coagulation, optic density on photoelectric calorimeter. The conditions noted are these: for coagulation of the protein (in words): albumin solution. The class given is biochemical. The protocol:
In the coagulation studies, albumin was used for the protein.
In the table, the calculated concentrations of the substances being investigated are listed.
One (1) ml of the tannin solution was put into the test-tube. One (1) ml of the albumin solution was added. 5 ml of water were added. The mixture was shaken. An optic density of the solution was determined on KΦK-2(photoelectric calorimeter) when Δ=260 nm, in cuvette=1 cm in 5, 10, 15, 20, 25 min.
Each weight was repeated three times and the optical density measured.
In addition, the control experiment was conducted with 1 ml of the albumin solution, 0.001 g of potassium iodide, 5 ml of water.

For series [3] the following is noted: reaction with PSA; cited from earlier work.
Where [4] appears, read: treated patients, hematological side-effect.

With `CN(C)/N=N/c1[nH]cnc1C(N)=O` [dacarbazine], in series [1] (melanoma patients, responses recorded in skin-based metastatic melanomas), the “frequency of objective responses” value is listed as 23%. For the same compound, in series [1] (setting [4]), the neuropenia recorded is 14 % of observations and the trombocytopenia recorded is 57 % of the patients.

As to `[I-].[K+]` [potassium iodide], the optic density in series [2] (0.001 g of potassium iodide added to the tannin/albumin solution) came to 0.87; in series [2] (another 0.001 g of potassium iodide added to the tannin/albumin solution), 0.92. The “coagulation of the protein (in words)” value in series [2] is “did not possess coagulating capacity”. For the same compound, the “turbidity in the solution” value in series [2] (control: 1 ml albumin solution, 0.001 g potassium iodide, 5 ml water, one hour later) was “no turbidity”.

As to `O=C(OC[C@H]1O[C@@H](OC(=O)c2cc(O)c(O)c(OC(=O)c3cc(O)c(O)c(O)c3)c2)[C@H](OC(=O)c2cc(O)c(O)c(OC(=O)c3cc(O)c(O)c(O)c3)c2)[C@@H](OC(=O)c2cc(O)c(O)c(OC(=O)c3cc(O)c(O)c(O)c3)c2)[C@@H]1OC(=O)c1cc(O)c(O)c(OC(=O)c2cc(O)c(O)c(O)c2)c1)c1cc(O)c(O)c(OC(=O)c2cc(O)c(O)c(O)c2)c1` [tannin, tannic acid], the “optic density d5” value in series [2] (1 ml tannin solution + 1 ml albumin solution + 5 ml water, 260 nm, 1 cm cuvette, 5 min) is 0.11. The “coagulation of the protein (in words)” value in series [2] is “No coagulation”. In series [2] (same mixture, 10 min), the “optic density d10” value stood at 0.16. Moreover, the “optic density d20” value in series [2] (same mixture, 20 min) is 0.19. Besides, the “optic density d25” value in series [2] (same mixture, 25 min) is 0.19. Moreover, the “period of precipitation for the reaction” value in series [2] (tannin + albumin) came out at 20 min. Besides, the “moles of N-acetylneuraminic acid sedimented by each mole of tannic acid” value in series [3] is recorded as “three”.
